# Results: ChEMBL document CHEMBL5247610, “Discovery of 5-((4-(pyridin-3-yl)pyrimidin-2-yl)amino)-1H-indole-2-carboxamide derivatives as novel anti-cancer agents targeting Nur77” (Eur J Med Chem, 2022)
# The source made the active and inactive calls. The calls are words filed in the database; no cut-off is given here.
# Legend:
# HepG2 [1] = test: Antitumor activity against human HepG2 cells xenografted in BALB/c nude mouse assessed as decrease in Ki67 expression in tumor tissues at 50 mg/kg, ip administered once every day for 14 days by immunohistochemistry analysis; type: functional, organism-based; settings: time 14.0 day
# [2] = Toxicity in Zebra fish AB embryo assessed as induction of morphological abnormalities at 0.5 uM incubated for 72 hrs; set-up: species or system Danio rerio; settings: zebrafish
# [3] = Toxicity in BALB/c nude mouse xenografted with human HepG2 cells assessed as effect on liver damage at 50 mg/kg ip administered once every day for 14 days by H and E staining based analysis; type: organism-based; settings: in vivo, 336 h, time 14 day
# [4] = target: T1, Nuclear receptor subfamily 4immunitygroup A member 1 (Homo sapiens, UniProt P22736); test: Modulation of Myc-Nur77-LBD (unknown origin) transfected in human HepG2 cells assessed as induction of Nur77 translocation from nucleus to mitochondria at 10 uM incubated for 3 hrs by confocal microscopy; settings: filed as modulator
# T1 sequence (P22736 whole entry, the tested form may be a part): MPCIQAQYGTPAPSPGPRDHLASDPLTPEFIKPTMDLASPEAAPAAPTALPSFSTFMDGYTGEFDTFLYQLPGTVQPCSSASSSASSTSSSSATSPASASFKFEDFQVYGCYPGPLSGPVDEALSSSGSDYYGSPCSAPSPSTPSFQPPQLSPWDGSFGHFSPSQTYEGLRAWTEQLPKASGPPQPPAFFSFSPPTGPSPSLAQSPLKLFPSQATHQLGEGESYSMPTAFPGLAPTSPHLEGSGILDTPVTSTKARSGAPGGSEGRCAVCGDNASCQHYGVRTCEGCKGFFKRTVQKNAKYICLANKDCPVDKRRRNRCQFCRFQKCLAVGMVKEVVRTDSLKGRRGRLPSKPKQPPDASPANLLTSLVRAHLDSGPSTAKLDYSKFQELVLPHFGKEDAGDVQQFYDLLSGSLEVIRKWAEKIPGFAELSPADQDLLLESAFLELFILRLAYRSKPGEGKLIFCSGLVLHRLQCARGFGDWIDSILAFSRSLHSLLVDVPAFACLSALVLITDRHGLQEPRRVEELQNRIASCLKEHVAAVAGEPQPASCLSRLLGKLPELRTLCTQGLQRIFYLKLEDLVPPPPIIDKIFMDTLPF
# [5] = Toxicity in BALB/c nude mouse xenografted with human HepG2 cells assessed as body weight loss at 50 mg/kg, ip administered once every day for 14 days; type: organism-based; settings: in vivo, 336 h, time 14 day
# HeLa = test: Antiproliferative activity against human HeLa cells assessed as reduction in cell viability incubated for 48 hrs by MTT assay; type: functional, cell-based
# HepG2 [6] = test: Induction of apoptosis in human HepG2 cells transfected with Nur77 siRNA assessed as mitochondrial membrane potential loss by measuring proportion of cells with depolarized MMP at 10 uM incubated for 12 hrs by JC-1 staining based flow cytometry (reference value: 5.81%); type: functional
# HepG2 [7] = test: Induction of apoptosis in Nur77 overexpressing human HepG2 cells transfected with Myc-Nur77 assessed as induction of PARP cleavage at 5 uM incubated for 12 hrs by western blot analysis; type: functional, cell-based
# [8] = target: T1, Nuclear receptor subfamily 4immunitygroup A member 1; test: Modulation of Myc-Nur77 (unknown origin) transfected in HEK293T cells assessed as induction of Nur77 translocation from nucleus to cytoplasm at 10 uM incubated for 2 to 4 hrs by western blot analysis; type: cell-based; settings: filed as modulator, time 2-4 hrs
# [9] = target: T1, Nuclear receptor subfamily 4immunitygroup A member 1; test: Modulation of GFP-Nur77 (unknown origin) transfected in human HepG2 cells assessed as induction of Nur77 translocation from nucleus to mitochondria at 10 uM incubated for 3 hrs by confocal microscopy; settings: filed as modulator
# HepG2 [10] = test: Antitumor activity against human HepG2 cells xenografted in BALB/c nude mouse assessed as inhibition of tumor weight at 50 mg/kg, ip administered once every day for 14 days; type: functional, organism-based; settings: time 14.0 day
# HepG2 [11] = test: Antitumor activity against human HepG2 cells xenografted in BALB/c nude mouse assessed as inhibition of tumor growth at 50 mg/kg, ip administered once every day for 14 days; type: functional; settings: HepG2, 336 h, time 14 day, read-out: TGI
# HepG2 [12] = test: Induction of apoptosis in human HepG2 cells assessed as late apoptotic cells at 10 uM incubated for 12 hrs by AnnexinV-FITC/PI staining based flow cytometry (reference value: 1.91%); type: functional
# [13] = target: T1, Nuclear receptor subfamily 4immunitygroup A member 1; test: Binding affinity to pBind-Nur77-LBD (unknown origin) transfected in HEK293T cells co-transfected with pG5-Luc assessed as inhibition of Nur77 transcriptional activity by measuring inhibition of Nur77-driven luciferase activity incubated for 12 hrs by luciferase reporter gene assay; type: cell-based; settings: filed as modulator, dose 1.25-5 µM
# HepG2 [14] = test: Induction of apoptosis in human HepG2 cells transfected with Nur77 siRNA assessed as late apoptotic cells at 10 uM incubated for 12 hrs by AnnexinV-FITC/PI staining based flow cytometry (reference value: 1.98%); type: functional
# HepG2 [15] = test: Induction of apoptosis in human HepG2 cells transfected with Nur77 siRNA assessed as early apoptotic cells at 10 uM incubated for 12 hrs by AnnexinV-FITC/PI staining based flow cytometry (reference value: 1.37%); type: functional
# [16] = Selectivity index, ratio of IC50 for human L02 cells to IC50 for human SMMC-7721 cells by MTT assay; type: toxicity; settings: L02 cells versus SMMC-7721 cells, read-out: Ratio IC50
# [17] = Selectivity index, ratio of IC50 for human L02 cells to IC50 for human HeLa cells by MTT assay; type: toxicity; settings: L02 cells versus HeLa cells, read-out: Ratio IC50
# HepG2 [18] = test: Induction of apoptosis in human HepG2 cells assessed as induction of PARP cleavage incubated for 12 hrs by western blot analysis; type: functional, cell-based
# HepG2 [19] = test: Induction of apoptosis in human HepG2 cells transfected with Nur77 siRNA assessed as viable cells at 10 uM incubated for 12 hrs by AnnexinV-FITC/PI staining based flow cytometry (reference value: 96.34%); type: functional; settings: read-out: Activity
# [20] = target: T2, Peroxisome proliferator-activated receptor gamma (Homo sapiens) (UniProt P37231); test: Binding affinity to pBind-PPARgamma-LBD (unknown origin) transfected in HEK293T cells co-transfected with pG5-Luc at 5 uM incubated for 12 hrs by luciferase reporter gene assay; type: cell-based
# T2 sequence (whole entry): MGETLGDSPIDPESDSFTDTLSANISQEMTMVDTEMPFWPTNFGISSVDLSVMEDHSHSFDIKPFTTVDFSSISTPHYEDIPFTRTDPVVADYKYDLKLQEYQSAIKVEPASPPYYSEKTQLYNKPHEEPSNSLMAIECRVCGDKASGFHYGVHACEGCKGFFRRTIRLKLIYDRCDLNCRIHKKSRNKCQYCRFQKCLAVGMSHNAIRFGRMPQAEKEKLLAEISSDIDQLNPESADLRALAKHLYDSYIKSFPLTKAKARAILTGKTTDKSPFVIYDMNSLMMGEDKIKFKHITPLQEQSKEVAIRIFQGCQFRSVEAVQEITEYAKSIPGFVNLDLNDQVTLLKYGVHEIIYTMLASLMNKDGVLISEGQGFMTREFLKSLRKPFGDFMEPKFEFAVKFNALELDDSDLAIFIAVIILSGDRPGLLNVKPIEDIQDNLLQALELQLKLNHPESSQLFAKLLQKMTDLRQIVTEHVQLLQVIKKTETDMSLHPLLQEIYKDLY
compound,measurement,setting,value
CN(C)CCCNC(=O)c1cc2cc(Nc3nccc(-c4cccnc4)n3)ccc2[nH]1,Activity,HepG2 [1],Active
same,Activity,[2],Non-Toxic
same,Activity,[3],Non-Toxic
same,Activity,[4],Active
same,Activity,[5],Non-Toxic
same,IC50,HeLa,3.75 µM
same,Activity,HepG2 [6],8.91%
same,Activity,HepG2 [7],Active
same,Activity,[8],Active
same,Activity,[9],Active
same,Activity,HepG2 [10],Active
same,inhibition in vivo at 50 mg/kg,HepG2 [11],71.8%
same,Activity,HepG2 [12],8.01%
same,Activity,[13],Dose-Dependent Effect
same,Activity,HepG2 [14],2.28%
same,Activity,HepG2 [15],1.92%
same,selectivity ratio,[16],1.9
same,selectivity ratio,[17],3
same,Activity,HepG2 [18],Dose-Dependent Effect
same,viability at 10 µM,HepG2 [19],95.1%
same,Activity,[20],inactive
